From patent US20150233903A1, “SOLID PHASE GLYCAN AND GLYCOPEPTIDE ANALYSIS AND MICROFLUIDIC CHIP FOR GLYCOMIC EXTRACTION, ANALYSIS AND METHODS FOR USING SAME” (THE JOHNS HOPKINS UNIVERSITY, priority 2012, published 2015)

System: pancreatic cancer cell line SW1990
Test: Relative quantitation of sialylated N-glycans from SW1990 cells with and without 1,3,4-O-Bu3ManNAc treatment (light/heavy p-toluidine labeling, MALDI-MS)
Assay type: cell-based
Conditions: for H/L: SW1990 cells treated (heavy) vs untreated (light), glycan Core+Na
Method: Proteins were immobilized to amino link beads via reductive amination. Briefly, AminoLink resin (200 μL) was loaded onto snap-cap spin-column, centrifuged at 2000 g for 1 minute. Resin was washed with 450 μL of pH 10 buffer (Sodium citrate 100 mM and sodium carbonate 50 mM) followed by centrifugation. The washing step was repeated twice. Proteins dissolved in pH 10 buffer were loaded onto prepared AminoLink resin in snap-cap spin-column in 1 mg/200 μL beads ratio. The volume was adjusted to 450 μL using pH 10 buffer. Sample-resin mixture was incubated at room temperature overnight. The mixture was centrifuged at 2000 g to remove any unbound protein. Resin was rinsed by 1×PBS buffer (Sigma-Aldrich; pH 7.4; 450 μL) three times. PBS buffer in the presence of 50 mM sodium cyanoborohydride (450 μL) was added to resin (spin-column capped during each incubation step). After a four hour incubation, supernatant was removed via centrifugation (2000 g) and 450 μL of 1 M Tris-HCl (pH 7.6) in the presence of 50 mM sodium cyanoborohydride was added to block un-reacted aldehyde sites of resin. The blocking process was terminated after 1 hour, followed by washing of resin with PBS twice, 1M […] twice and water three times.
Proteins conjugated on solid support were mixed with 450 μL of 1M p-toluidine and 40 μL of EDC at pH 4.5 adjusted using HCl. After incubation for 4 hours, beads were washed twice with 500 μL of 1M NaCl and water followed by 50 mM ammonium bicarbonate, three times for each solution, and treated with 100 units of PNGase F in 0.3 mL of 50 mM ammonium bicarbonate overnight at 37° C. to release N-glycans from proteins. Nglycans released in the supernatant were subsequently collected. The N-glycans released from glycoproteins were further purified and concentrated over Carbograph columns (Extract-Clean SPE Carbo 150 mg; Grace Division Discovery Science; Deerfield, Ill.) and eluted in 0.1% TFA 50% acetonitrile/water following the manufacturer's instruction (Grace Davison Discovery Sciences, Milwaukee, Wis.). Glycans were then dried in Savant Speed-Vac (Thermo Scientific, Asheville, N.C.).
Glycans were resuspended in 20 μL of water. Sample 1.5 μL was mixed 1.5 μL of matrix on a 384-well goals MALDI plate (Hudson Surface Technology, Fort Lee, N.J.). DHB matrix solution was prepared by dissolving 100 mg of DHB in 1 mL of a 1:1 solution of water and ACN followed by addition of 40 μL of dimethylaniline. Glycans were analyzed by Shimadzu AXIMA Resonance Mass Spectrometer (Shimadzu, Columbia, Md.) in positive mode.
It has been well established that the extent of glycan sialylation depends on sialyltransferases, the biosynthetic enzymes responsible for adding a sialic acid to an underlying galactose or GalNAc residue. […] To fill this void, in the present invention we profiled N-glycans in SW1990 treated with 1,3,4-O-Bu3ManNAc as previously described. Protein extract from 1,3,4-O-Bu3ManNAc treated SW1990 cells and untreated control cells were conjugated to solid support and labeled with isotopic p-toluidine as described above. The mass spectrometric analysis of labeled glycans identified 87 N-glycans based on accurate mass (data not shown). Sialic acid compositional assignment was determined based on the differences of heavy and light labeled glycans. Twenty one heavy and light glycan peaks were identified with a mass shift of 7 or a multiple of 7, confirming that the presence of 21 sialylated glycans (FIGS. 13A and 13B). Qualitative analysis of N-glycans from cells with and without ManNAc treatment using isotopic labeling of sialylated N-glycans with 1:1 combined samples identified and quantified 14 sialylated glycans (Table 5). Seven other sialylated Nglycans could not be quantified due to low signal to noise ratio when the two samples were combined for MS analysis.

In the case of CCCC(=O)OC1O[C@H](CO)[C@@H](OC(=O)CCC)[C@H](OC(=O)CCC)[C@@H]1NC(C)=O (stereo partly shown) [1,3,4-O—Bu3ManNAc, 1,3,4-O-Bu3ManNAc], the H/L (Fucose 0, HexNAc 2, Hexose 2, Sialic Acid 1, [M+Na] 2043.89) was 1.29, the H/L (Fucose 1, HexNAc 2, Hexose 2, Sialic Acid 1, [M+Na] 2189.95) was 1.09 and the H/L (Fucose 1, HexNAc 2, Hexose 2, Sialic Acid 2, [M+Na] 2570.21) was 1.02. The H/L (Fucose 1, HexNAc 3, Hexose 2, Sialic Acid 1, [M+Na] 2393.04) was 1.95, the H/L (Fucose 1, HexNAc 3, Hexose 2, Sialic Acid 2, [M+Na] 2773.31) was 1.70 and the H/L (Fucose 1, HexNAc 3, Hexose 3, Sialic Acid 1, [M+Na] 2555.10) was 1.31. For the same compound, the H/L (Fucose 1, HexNAc 3, Hexose 3, Sialic Acid 2, [M+Na] 2935.36) was 0.98, the H/L (Fucose 1, HexNAc 4, Hexose 3, Sialic Acid 1, [M+Na] 2758.19) was 1.66 and the H/L (Fucose 2, HexNAc 2, Hexose 2, Sialic Acid 1, [M+Na] 2336.01) was 1.10. For the same compound, the H/L (Fucose 2, HexNAc 3, Hexose 2, Sialic Acid 1, [M+Na] 2539.10) was 1.31, the H/L (Fucose 2, HexNAc 3, Hexose 3, Sialic Acid 1, [M+Na] 2701.15) was 1.03 and the H/L (Fucose 2, HexNAc 4, Hexose 3, Sialic Acid 1, [M+Na] 2904.25) was 2.04. The H/L (Fucose 3, HexNAc 3, Hexose 2, Sialic Acid 1, [M+Na] 2585.15) was 1.00, the H/L (Fucose 3, HexNAc 4, Hexose 3, Sialic Acid 1, [M+Na] 3050.31) was 1.39 and the “decrease in sialylated N-glycans when cells were treated” value (SW1990 cells, treated vs untreated) was “no significant decrease”. The “number of sialylated N-glycan compositions with a significant increase in abundance” value (SW1990 cells, treated vs untreated, 14 sialylated glycans quantified) was “six”.
